Test results reported in patent US4740499A, “Method of enhancing the bioactivity of atrial peptides” (Monsanto Company, priority 1986, dated 1988).

Assay: Plasma AP-III levels (radioimmunoassay) in rats, second test: varied AP-III infusion rate, constant thiorphan dose
Type: in vivo, rat
Conditions: for Plasma AP-III concn.: thiorphan 3 mg/kg arterial after 30 min sample
Description: Plasma levels of atriopeptin III (AP-III) were tested in rats in which the AP-III was infused intravenously both with and without contemporaneous administration of thiorphan.
Male Sprague-Dawley rats, 240-310 g, were used for all tests. The rats were housed in the test facilities for at least 6 days before they were used.
Cannulas were made of PE-10 (polyethylene) tubing inserted and glued into a piece of PE-50 tubing. Rats were anesthetized with pentobarbital (50 mg/kg i.p.) and had cannulas inserted into the left femoral vein and artery. Both were inserted four cm into the vessels and tied securely. They were then tunnelled under the skin and brought out between the rat's shoulder blades and then cut so that only 1-2 cm was externalized. Cannulas were glued in place using Superglue and filled with saline containing 100 units heparin/ml. Rats were allowed to wake up and then housed individually with food and water ad libitum.
Two days after surgery, the rats were weighed and put into restraining cages that allowed limited movement. […] Blood was collected from the femoral artery and replaced with saline containing 10 units heparin/ml. In most tests, 0.3 ml blood was taken, except that when basal AP-III levels were measured 0.4 ml blood was withdrawn. Blood was immediately centrifuged in a microcentrifuge for one minute and plasma was frozen in plastic tubes placed on dry ice. Samples were kept in a -80° C. freezer until they were analyzed.
Thiorphan was dissolved in a minimal amount of 0.1 N NaOH to produce the sodium salt. The solution was immediately neutralized using 0.5 N HCl and diluted to a final concentration with 0.9% saline.
In the second test, the level of thiorphan was kept constant at 3 mg/kg and the rate of AP-III infusion was varied. AP-III was infused into the femoral vein for a total of 60 minutes at a rate of 150,450 and 900 ng/kg/min; another group of rats received only an infusion of dextrose/saline to determine if thiorphan affected the basal levels of AP-III. Blood was taken at 15 and 30 minutes after the start of the AP-III infusion to check for a steady state AP-III plasma concentration. After the 30 min sample, thiorphan (3 mg/kg) was injected arterially and additional blood samples were taken 15 and 30 min later (45 and 60 minutes after the start of the AP-III infusion).
Plasma AP-III levels were analyzed by radioimmunoassay using a second antibody to separate free and bound AP-III. The label was ^125 I-AP-III that was purified by HPLC after iodination. Conditions were set so that 35-40% of the total counts were precipitated. The incubation medium contained sodium phosphate, pH 7.4, 0.25% bovine serum albumin (BSA), 0.5% sodium azide and 3% PEG-8000 (polyethylene glycol). The primary antibody was from a guinea pig immunized against AP-III. The incubations were done overnight at 6° C. The next day, 2 ml of 0.125% BSA was added to each tube and then they were centrifuged for 45 min at 3000 rpm. They were decanted and the radioactivity was counted in a Micromedic gamma counter. The standard curve contained 10 to 600 pg AP-III/tube. Only the linear portion of the curve was used for quantification. Plasma samples were diluted so that the AP-III concentrations were in the range of the standard curve.

## O=C(O)CNC(=O)C(CS)Cc1ccccc1 (racemic) [thiorphan, N-(DL-2-benzyl-3-mercapto-propionyl)glycine]
rat, AP-III 150 ng/kg/min i.v. infusion, 45 min
  Plasma AP-III concn.: 2.6 ± 0.8 ng/mL
rat, AP-III 150 ng/kg/min i.v. infusion, 60 min
  Plasma AP-III concn.: 3.3 ± 1.7 ng/mL
rat, AP-III 450 ng/kg/min i.v. infusion, 45 min
  Plasma AP-III concn.: 11.2 ± 3.6 ng/mL
rat, AP-III 450 ng/kg/min i.v. infusion, 60 min
  Plasma AP-III concn.: 12.8 ± 5.8 ng/mL
rat, AP-III 900 ng/kg/min i.v. infusion, 45 min
  Plasma AP-III concn.: 29.8 ± 7.6 ng/mL
rat, AP-III 900 ng/kg/min i.v. infusion, 60 min
  Plasma AP-III concn.: 23.0 ± 6.0 ng/mL
rat, no AP-III infusion (dextrose/saline only, basal AP-III), 45 min
  Plasma AP-III concn.: 0.6 ± 0.3 ng/mL
rat, no AP-III infusion (dextrose/saline only, basal AP-III), 60 min
  Plasma AP-III concn.: 0.5 ± 0.2 ng/mL
rat, thiorphan 3 mg/kg given 30 min after start of various AP-III infusion rates
  Increase of plasma AP-III levels after thiorphan administration: 2-3 fold
Rats receiving no exogenous peptide, thiorphan 3 mg/kg
  Basal levels of AP-III after inhibitor: did not increase
